Values joined by “and” are separate entries in the source; they are usually repeats but may differ in a detail not shown here. Equal values may be shown once. Inconclusive results and toxic doses are left out.
Tested on: P388 leukemia ip, CD2F1 mice, survival T/C
Test: NCI In Vivo Anticancer Drug Screen. Data for tumor model P388 Leukemia (intraperitoneal) in CD2F1 (CDF1) mice
Details: endpoint: median survival time, higher = longer survival
In short: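 Mice carrying the transplanted tumor received test compound or vehicle. Survival was recorded in each group, and the value is the treated-group measurement divided by that of the vehicle-treated control group.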

[1] = dose: 50.0 mg/kg/injection, schedule: Q01DX005 (ip), vehicle: saline with Tween-80
[2] = dose: 100.0 mg/kg/injection, schedule: Q01DX005 (ip), vehicle: saline with Tween-80
[3] = dose: 60.0 mg/kg/injection, schedule: Q01DX005 (ip), vehicle: saline with Tween-80
[4] = dose: 240.0 mg/kg/injection, schedule: Q01DX005 (ip), vehicle: saline with Tween-80
[5] = dose: 100.0 mg/kg/injection, schedule: Q04DX003 (ip), vehicle: saline with Tween-80
[6] = dose: 200.0 mg/kg/injection, schedule: Q04DX003 (ip), vehicle: saline with Tween-80
[7] = dose: 6.25 mg/kg/injection, schedule: Q01DX009 (ip), vehicle: Klucel (hydroxypropylcellulose) (HPC)
[8] = dose: 12.5 mg/kg/injection, schedule: Q01DX009 (ip), vehicle: Klucel (hydroxypropylcellulose) (HPC)
[9] = dose: 25.0 mg/kg/injection, schedule: Q01DX009 (ip), vehicle: Klucel (hydroxypropylcellulose) (HPC)
[10] = dose: 100.0 mg/kg/injection, schedule: Q04DX003 (ip), vehicle: Klucel (hydroxypropylcellulose) (HPC)
[11] = dose: 200.0 mg/kg/injection, schedule: Q04DX003 (ip), vehicle: Klucel (hydroxypropylcellulose) (HPC)
[12] = dose: 400.0 mg/kg/injection, schedule: Q04DX003 (ip), vehicle: Klucel (hydroxypropylcellulose) (HPC)
[13] = dose: 400.0 mg/kg/injection, schedule: Q04DX003 (ip), vehicle: saline with Tween-80
[14] = dose: 120.0 mg/kg/injection, schedule: Q01DX005 (ip), vehicle: saline with Tween-80
[15] = dose: 25.0 mg/kg/injection, schedule: Q01DX009 (ip), vehicle: saline with Tween-80
[16] = dose: 12.5 mg/kg/injection, schedule: Q01DX009 (ip), vehicle: saline with Tween-80
[17] = dose: 200.0 mg/kg/injection, schedule: Q01DX009 (ip), vehicle: saline with Tween-80
[18] = dose: 50.0 mg/kg/injection, schedule: Q01DX009 (ip), vehicle: saline with Tween-80
[19] = dose: 50.0 mg/kg/injection, schedule: Q01DX009 (ip), vehicle: saline
[20] = dose: 200.0 mg/kg/injection, schedule: Q01DX005 (ip), vehicle: saline with Tween-80

For Cc1cc(C)c(-c2cc(C(O)C3OC4OC(C)(C)OC4C3O)on2)c(C)c1 (configuration not stated), the T/C [1] was 108 % of control and the T/C [2] was 90 % of control.
With CC1CCC(C(C)C)C(N)C1 (configuration not stated) the T/C (dose: 25.0 mg/kg/injection, schedule: Q04DX002 (ip), vehicle: suspension in saline) was 100 % of control, the T/C (dose: 50.0 mg/kg/injection, schedule: Q04DX002 (ip), vehicle: suspension in saline) was 93 % of control and the T/C (dose: 100.0 mg/kg/injection, schedule: Q04DX002 (ip), vehicle: saline with Tween-80) was 89 % of control. The T/C (dose: 100.0 mg/kg/injection, schedule: Q04DX002 (ip), vehicle: suspension in saline) was 102 % of control.
For O=C(NC(=S)Nc1cccc2c(O)cccc12)c1cccc(Br)c1, the T/C (dose: 15.0 mg/kg/injection, schedule: Q01DX005 (ip), vehicle: saline with Tween-80) was 91 % of control, the T/C (dose: 30.0 mg/kg/injection, schedule: Q01DX005 (ip), vehicle: saline with Tween-80) was 89 % of control and the T/C [3] was 91 % of control. For the same molecule, the T/C [4] was 90 % of control and 94 % of control.
For COc1ccc(-c2oc3cc(OC)c(OC)c(OC)c3c(=O)c2O)cc1O, the T/C (dose: 25.0 mg/kg/injection, schedule: Q04DX003 (ip), vehicle: saline with Tween-80) was 87 % of control, the T/C (dose: 50.0 mg/kg/injection, schedule: Q04DX003 (ip), vehicle: saline with Tween-80) was 105 % of control and the T/C [5] was 97 % of control. The T/C [6] was 99 % of control.
For CC1(C)CNC(=S)O1, the T/C [7] was 107 % of control, the T/C [8] was 100 % of control and the T/C [9] was 88 % of control and 89 % of control.
In the case of COC(=O)C1CC2CCCCC2C1C(=O)OC (configuration not stated), the T/C [10] is reported as 89 % of control, the T/C [11] is reported as 87 % of control and the T/C [12] is reported as 89 % of control.
C=CCC12CC(OC)C(O)CC1(O)OC(c1cc(OC)c(OC)c(OC)c1)C2C (configuration not stated) was tested, and the T/C (dose: 1.25 mg/kg/injection, schedule: Q01DX005 (ip), vehicle: acid diluted with saline) was 115 % of control, the T/C (dose: 2.5 mg/kg/injection, schedule: Q01DX005 (ip), vehicle: acid diluted with saline) was 100 % of control and the T/C (dose: 5.0 mg/kg/injection, schedule: Q01DX005 (ip), vehicle: acid diluted with saline) was 93 % of control. For the same molecule, the T/C (dose: 10.0 mg/kg/injection, schedule: Q01DX005 (ip), vehicle: acid diluted with saline) was 106 % of control.
In the case of O=C1C2C3CCC(O3)C2C(=O)N1CO (configuration not stated), the T/C (dose: 60.0 mg/kg/injection, schedule: Q01DX005 (ip), vehicle: saline) is reported as 112 % of control and the T/C (dose: 120.0 mg/kg/injection, schedule: Q01DX005 (ip), vehicle: saline) is reported as 124 % of control.
For OCc1cc(-c2ccc(Cl)cc2)nc2c(C(F)(F)F)cccc12, the T/C [5] was 100 % of control, the T/C [6] was 111 % of control and the T/C [13] was 92 % of control.
In the case of COc1ccc(/C=N/N2CN(C(CC(N)=O)C(=O)O)P(Nc3ncccn3)N=C2N)cc1OC (configuration not stated), the T/C [3] is reported as 104 % of control, the T/C [14] is reported as 102 % of control and the T/C [4] is reported as 95 % of control.
CC(C)=CC(=O)CC(O)(C(F)(F)F)C(F)(F)Cl (configuration not stated) was tested, and the T/C [15] was 109 % of control.
CC(Nc1ccc([N+](=O)[O-])c2nonc12)C(=O)O (configuration not stated) was tested, and the T/C (dose: 6.25 mg/kg/injection, schedule: Q01DX009 (ip), vehicle: saline with Tween-80) was 108 % of control, the T/C [16] was 100 % of control and the T/C [15] was 111 % of control. The T/C [17] was 86 % of control.
With CCOC(=O)CNCc1ccc(Cl)c(Cl)c1 the T/C [7] was 100 % of control, the T/C [8] was 103 % of control and 97 % of control and the T/C [9] was 100 % of control. The T/C (dose: 50.0 mg/kg/injection, schedule: Q01DX009 (ip), vehicle: Klucel (hydroxypropylcellulose) (HPC)) was 108 % of control and 94 % of control and the T/C (dose: 100.0 mg/kg/injection, schedule: Q01DX009 (ip), vehicle: Klucel (hydroxypropylcellulose) (HPC)) was 104 % of control.
With CC1C(C(=O)c2ccccc2)=CNc2ccccc21 (configuration not stated) the T/C (dose: 100.0 mg/kg/injection, schedule: Q01DX001 (ip), vehicle: saline with Tween-80) was 91 % of control, the T/C (dose: 200.0 mg/kg/injection, schedule: Q01DX001 (ip), vehicle: saline with Tween-80) was 96 % of control and the T/C (dose: 400.0 mg/kg/injection, schedule: Q01DX001 (ip), vehicle: saline with Tween-80) was 92 % of control.
FC(F)(F)c1nc(Cc2ccccc2)c(C(F)(F)F)o1 was tested, and the T/C [5] was 93 % of control, the T/C [6] was 93 % of control and the T/C [13] was 95 % of control.
With CCC(C)C(=O)Nc1ccccc1-c1ccccc1 (configuration not stated) the T/C [16] was 99 % of control, the T/C [15] was 100 % of control and the T/C [18] was 103 % of control. The T/C [19] was 91 % of control.
In the case of C=C(C(=O)N(C(C)C)C(C)C)C(C)C(C)(C)O (configuration not stated), the T/C (dose: 50.0 mg/kg/injection, schedule: Q04DX002 (ip), vehicle: Klucel (hydroxypropylcellulose) (HPC)) is reported as 101 % of control and the T/C (dose: 100.0 mg/kg/injection, schedule: Q04DX002 (ip), vehicle: Klucel (hydroxypropylcellulose) (HPC)) is reported as 101 % of control.
For Nc1nc2nc[nH]c2c(=O)[nH]1, the T/C [15] was 97 % of control, the T/C [18] was 98 % of control and the T/C (dose: 100.0 mg/kg/injection, schedule: Q01DX009 (ip), vehicle: saline with Tween-80) was 90 % of control. The T/C (dose: 100.0 mg/kg/injection, schedule: Q01DX009 (ip), vehicle: suspension in saline) was 97 % of control, the T/C [17] was 90 % of control and the T/C (dose: 200.0 mg/kg/injection, schedule: Q01DX009 (ip), vehicle: suspension in saline) was 92 % of control. For the same molecule, the T/C (dose: 400.0 mg/kg/injection, schedule: Q01DX009 (ip), vehicle: suspension in saline) was 87 % of control.
With Cn1c(=O)c2nc(-c3ccc(Cl)cc3)oc2n(C)c1=O the T/C [19] was 104 % of control, the T/C (dose: 100.0 mg/kg/injection, schedule: Q01DX009 (ip), vehicle: saline) was 100 % of control and the T/C (dose: 200.0 mg/kg/injection, schedule: Q01DX009 (ip), vehicle: saline) was 102 % of control.
With O=C(CCBr)NCCNC(=O)CCBr the T/C (dose: 43.75 mg/kg/injection, schedule: Q01DX009 (ip), vehicle: saline) was 105 % of control, the T/C (dose: 87.5 mg/kg/injection, schedule: Q01DX009 (ip), vehicle: saline) was 103 % of control and the T/C (dose: 175.0 mg/kg/injection, schedule: Q01DX009 (ip), vehicle: saline) was 108 % of control.
With CC1S(=O)(=O)OCCOS1(=O)=O the T/C (dose: 12.5 mg/kg/injection, schedule: Q01DX005 (ip), vehicle: Klucel (hydroxypropylcellulose) (HPC)) was 162 % of control, the T/C (dose: 25.0 mg/kg/injection, schedule: Q01DX005 (ip), vehicle: Klucel (hydroxypropylcellulose) (HPC)) was 175 % of control and 275 % of control and the T/C (dose: 50.0 mg/kg/injection, schedule: Q01DX005 (ip), vehicle: Klucel (hydroxypropylcellulose) (HPC)) was 165 % of control and 288 % of control.
O=C1N[C@H]2CS(=O)(=O)C[C@H]2N1 was tested, and the T/C [1] was 100 % of control, the T/C [2] was 104 % of control and the T/C [20] was 93 % of control.
With Cc1cc(N(CCOS(C)(=O)=O)CCOS(C)(=O)=O)ccc1C=O the T/C (dose: 3.12 mg/kg/injection, schedule: Q01DX009 (ip), vehicle: Klucel (hydroxypropylcellulose) (HPC)) was 150 % of control and 176 % of control, the T/C [7] was 174 % of control and 196 % of control and the T/C [8] was 110 % of control and 213 % of control and 217 % of control.
CC(=O)CCC(=O)CC(=O)CCC(=O)Nc1cc(Cl)ccc1Cl was tested, and the T/C [3] was 107 % of control, the T/C [14] was 106 % of control and the T/C [4] was 101 % of control.
With O=C(N/N=C/c1cccc(O)c1O)c1ccccc1 the T/C [1] was 104 % of control, the T/C [2] was 109 % of control and the T/C [20] was 119 % of control.
In the case of CCSC(=O)/C=C\C=[N+](/[O-])OC, the T/C (dose: 12.5 mg/kg/injection, schedule: Q01DX009 (ip), vehicle: other) is reported as 103 % of control, the T/C (dose: 25.0 mg/kg/injection, schedule: Q01DX009 (ip), vehicle: other) is reported as 104 % of control and the T/C (dose: 50.0 mg/kg/injection, schedule: Q01DX009 (ip), vehicle: other) is reported as 112 % of control and 94 % of control. The T/C (dose: 100.0 mg/kg/injection, schedule: Q01DX009 (ip), vehicle: other) was 97 % of control.
For CN1CCc2nc[nH]c2C1, the T/C (dose: 100.0 mg/kg/injection, schedule: Q04DX002 (ip), vehicle: saline) was 97 % of control, the T/C (dose: 200.0 mg/kg/injection, schedule: Q04DX002 (ip), vehicle: saline) was 101 % of control and the T/C (dose: 400.0 mg/kg/injection, schedule: Q04DX002 (ip), vehicle: saline) was 99 % of control.
For COc1ccc(CN2COc3c(cc(Cl)c4cccnc34)C2)cc1, the T/C [10] was 96 % of control, the T/C [11] was 104 % of control and the T/C [12] was 95 % of control.
